This is an account of results in PubChem BioAssay AID1259407 (Chemical Carcinogenesis Research Information System (CCRIS), 2018).

This data set concerns CCRIS mutagenicity, Ames/micronucleus/aberration tests. Briefly: CCRIS mutagenicity studies. From the text:
The CCRIS database contains chemical records with carcinogenicity, mutagenicity, tumor promotion, and tumor inhibition test results. It was developed by the National Cancer Institute (NCI). Data are derived from studies cited in primary journals, current awareness tools, NCI reports, and other sources. Test results have been reviewed by experts in carcinogenesis and mutagenesis.
CCRIS provides historical information from the years 1985 - 2011. It is no longer updated.
This is an archive assay for CCRIS mutagenicity studies.

Setting [1] is: Test System: AMES SALMONELLA TYPHIMURIUM, Strain/Indicator: TA98, Metabolic Activation: NONE, Method: STANDARD PLATE.
Where [2] appears, read: Test System: AMES SALMONELLA TYPHIMURIUM, Strain/Indicator: TA98, Metabolic Activation: RAT, LIVER, S-9, AROCLOR 1254, Method: STANDARD PLATE.
Setting [3] is: Test System: AMES SALMONELLA TYPHIMURIUM, Strain/Indicator: TA100, Metabolic Activation: NONE, Method: STANDARD PLATE.
The mark [4] stands for this setting: Test System: AMES SALMONELLA TYPHIMURIUM, Strain/Indicator: TA100, Metabolic Activation: RAT, LIVER, S-9, AROCLOR 1254, Method: STANDARD PLATE.
Setting [5] is: Test System: AMES SALMONELLA TYPHIMURIUM, Strain/Indicator: TA1535, Metabolic Activation: NONE, Method: STANDARD PLATE.
The mark [6] stands for this setting: Test System: CHINESE HAMSTER V-79, Strain/Indicator: V-79/6-THIOGUANINE, Metabolic Activation: NONE, Method: STANDARD PLATE.
Setting [7] is: Test System: AMES SALMONELLA TYPHIMURIUM, Strain/Indicator: TA1537, Metabolic Activation: NONE, Method: STANDARD PLATE.
The mark [8] stands for this setting: Test System: AMES SALMONELLA TYPHIMURIUM, Strain/Indicator: TA1538, Metabolic Activation: NONE, Method: STANDARD PLATE.

The source made the active and inactive calls. How the calls were made is not given here.

Regarding `CN(N=O)C(=O)N[C@@H](C=O)[C@@H](O)[C@H](O)[C@H](O)CO`, the mutagenic call by setting is: (End Point: IN VITRO CHROMOSOMAL ABERRATIONS, Test System: CHE CELLS, Metabolic Activation: NONE, Method: FISH (METAPHASE)) “active; positive (structural changes)”; (Test System: AMES SALMONELLA TYPHIMURIUM, Strain/Indicator: TA97, Metabolic Activation: NONE, Method: STANDARD PLATE) “active; positive”; (Test System: AMES SALMONELLA TYPHIMURIUM, Strain/Indicator: TA97, Metabolic Activation: RAT, LIVER, S-9, AROCLOR 1254, Method: STANDARD PLATE) “inactive; negative”; under setting [1], “inactive; negative”; under setting [2], “inactive; negative”; under setting [3], “active; positive”. Further, the mutagenic call is “inactive; negative” under setting [4]; “active; positive” under setting [5]; “active; positive” (Test System: CHINESE HAMSTER OVARY, Strain/Indicator: CHO-9 (HPRT), Metabolic Activation: NONE); “active; positive” (Test System: CHINESE HAMSTER OVARY, Strain/Indicator: CHO-9/OUABAIN, Metabolic Activation: NONE); “active; positive” (Test System: CHINESE HAMSTER OVARY, Strain/Indicator: CHO-K1-BH4 (HGPRT), Metabolic Activation: NONE, Method: SUSPENSION/PLATE); “active; positive” (Test System: CHINESE HAMSTER OVARY, Strain/Indicator: EM-C11 (HPRT), Metabolic Activation: NONE). In addition, the mutagenic call was “active; positive” (Test System: CHINESE HAMSTER OVARY, Strain/Indicator: EM-C11/OUABAIN, Metabolic Activation: NONE); “active; positive” under setting [6]; “active; positive” (Test System: CHINESE HAMSTER V-79, Strain/Indicator: V-79/8-AZAGUANINE, Metabolic Activation: NONE, Method: STANDARD PLATE); “active; positive” (Test System: E. COLI, Strain/Indicator: WP2 (HCR), Metabolic Activation: NONE, Method: STANDARD PLATE).
With `O=[N+]([O-])c1ccccc1SSC(Cl)=C(Cl)Cl`, the mutagenic call by setting is: (Test System: AMES SALMONELLA TYPHIMURIUM, Strain/Indicator: TA100(DNP6), Metabolic Activation: NONE, Method: PREINCUBATION) “active; positive”; (Test System: AMES SALMONELLA TYPHIMURIUM, Strain/Indicator: TA100(NR), Metabolic Activation: NONE, Method: PREINCUBATION) “active; positive”.
As for `CO/N=C(\C(=O)N[C@@H]1C(=O)N2C(C(=O)O)=C(CSC(=O)c3ccco3)CS[C@H]12)c1csc(N)n1`, the mutagenic call is “inactive; negative” under setting [1]; “inactive; negative” under setting [2]; “inactive; negative” under setting [3]; “inactive; negative” under setting [4]; “inactive; negative” under setting [5]; “inactive; negative” (Test System: AMES SALMONELLA TYPHIMURIUM, Strain/Indicator: TA1535, Metabolic Activation: RAT, LIVER, S-9, AROCLOR 1254, Method: STANDARD PLATE). Also, the mutagenic call under setting [7] is “inactive; negative”; the mutagenic call (Test System: AMES SALMONELLA TYPHIMURIUM, Strain/Indicator: TA1537, Metabolic Activation: RAT, LIVER, S-9, AROCLOR 1254, Method: STANDARD PLATE) is “inactive; negative”; the mutagenic call under setting [8] is “inactive; negative”; the mutagenic call (Test System: AMES SALMONELLA TYPHIMURIUM, Strain/Indicator: TA1538, Metabolic Activation: RAT, LIVER, S-9, AROCLOR 1254, Method: STANDARD PLATE) is “inactive; negative”; the mutagenic call (Test System: CHINESE HAMSTER V-79, Strain/Indicator: V-79 (HPRT)/6-THIOGUANINE, Metabolic Activation: NONE) is “inactive; negative”; the mutagenic call (Test System: CHINESE HAMSTER V-79, Strain/Indicator: V-79 (HPRT)/6-THIOGUANINE, Metabolic Activation: RAT, LIVER, S-9, AROCLOR 1254) was “inactive; negative”. Also, under “Test System: UDS RAT HEPATOCYTES, Strain/Indicator: THY INCORP, Metabolic Activation: NONE, Method: IN VIVO-IN VITRO”, the mutagenic call is “inactive; negative”.
Take `Nc1cc(Cl)ccc1[N+](=O)[O-]`: the mutagenic call reads like this: (End Point: IN VITRO CHROMOSOMAL ABERRATIONS, Test System: CHL CELLS, Metabolic Activation: RAT, LIVER, S-9, SODIUM PHENOBARBITAL AND 5,6-BENZOFLAVONE) “active; positive (structural changes); authors report equivocal results for ploidy chang”; (Test System: AMES SALMONELLA TYPHIMURIUM, Strain/Indicator: TA98, Metabolic Activation: NONE, Method: PREINCUBATION) “active; positive”; (Test System: AMES SALMONELLA TYPHIMURIUM, Strain/Indicator: TA98, Metabolic Activation: RAT LIVER S-9, PHENOBARBITAL AND BETA-NAPHTHOFLAVONE, Method: PREINCUBATION) “active; positive”; (Test System: AMES SALMONELLA TYPHIMURIUM, Strain/Indicator: TA100, Metabolic Activation: NONE, Method: PREINCUBATION) “inactive; negative”; (Test System: AMES SALMONELLA TYPHIMURIUM, Strain/Indicator: TA100, Metabolic Activation: RAT LIVER S-9, PHENOBARBITAL AND BETA-NAPHTHOFLAVONE, Method: PREINCUBATION) “inactive; negative”; (Test System: AMES SALMONELLA TYPHIMURIUM, Strain/Indicator: TA1535, Metabolic Activation: NONE, Method: PREINCUBATION) “inactive; negative”. Further, the mutagenic call (Test System: AMES SALMONELLA TYPHIMURIUM, Strain/Indicator: TA1535, Metabolic Activation: RAT LIVER S-9, PHENOBARBITAL AND BETA-NAPHTHOFLAVONE, Method: PREINCUBATION) was “inactive; negative”; the mutagenic call (Test System: AMES SALMONELLA TYPHIMURIUM, Strain/Indicator: TA1537, Metabolic Activation: NONE, Method: PREINCUBATION) is “inactive; negative”; the mutagenic call (Test System: AMES SALMONELLA TYPHIMURIUM, Strain/Indicator: TA1537, Metabolic Activation: RAT LIVER S-9, PHENOBARBITAL AND BETA-NAPHTHOFLAVONE, Method: PREINCUBATION) is “inactive; negative”; the mutagenic call (Test System: E.COLI, Strain/Indicator: WP2UVRA, Metabolic Activation: NONE, Method: PREINCUBATION) is “inactive; negative”; the mutagenic call (Test System: E.COLI, Strain/Indicator: WP2UVRA, Metabolic Activation: RAT LIVER S-9, PHENOBARBITAL AND BETA-NAPHTHOFLAVONE, Method: PREINCUBATION) was “inactive; negative”.
With `O=[N+]([O-])c1ccc(-c2nc3n(c2[N+](=O)[O-])CCS3)cc1`, the mutagenic call is, setting by setting: under setting [1], “active; positive”; under setting [3], “active; positive”; under setting [5], “inactive; negative”; under setting [7], “inactive; negative”; under setting [8], “active; positive”.
For the compound `CCCCCC/C=C/C=O`, the mutagenic call (End Point: IN VITRO CHROMOSOMAL ABERRATIONS, Test System: RAT HEPATOCYTES, Metabolic Activation: NONE) was “inactive; negative”; the mutagenic call (End Point: IN VITRO MICRONUCLEUS, Test System: RAT HEPATOCYTES, Metabolic Activation: NONE) was “inactive; negative”; the mutagenic call under setting [6] was “active; positive”; the mutagenic call (Test System: CHINESE HAMSTER V-79, Strain/Indicator: V-79/OUABAIN, Metabolic Activation: NONE, Method: STANDARD PLATE) was “inactive; negative”.
